Experimental data: patent publication US20240279220A1, “INDOLE COMPOUNDS AND METHODS OF USE” (Genzyme Corporation, priority 2021, published 2024)

Key:
[1] = system: NBD1/3D; assay: Aggregation analysis using differential static light scattering (DSLS), NBD1 thermal stability; assay type: binding, Human; conditions: ΔTagg versus DMSO control; compound at 100 μM
Summary of the method: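 Purified NBD1 at 0.2 mg/ml in S200 buffer (pH 7.6, 2 mM ATP, 5 mM MgCl2, 1% glycerol) was heated with compound at 1 °C/min to 70 °C. Tagg taken from the light-scattering curve inflection point; ΔTagg = compound Tagg minus mean DMSO control Tagg.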

[2] = biological target: T1, CFTR (Homo sapiens, UniProt P13569, DEL508-508); assay: TECC24 recording of CFTR-mediated transepithelial chloride transport in ΔF508 homozygous CF-HBE cells; assay type: cell-based; conditions: 10 μM test agent, 48 hours incubation, AUC of forskolin-stimulated IEQ divided by vehicle AUC, primary CF-HBE cells
T1 construct: Primary human bronchial epithelial cells from a ΔF508 homozygous CF donor; host or cells: primary human bronchial epithelial cells (CF-HBE), ΔF508 homozygous donor
T1 sequence (P13569 with tags, fused parts or gaps DEL508-508): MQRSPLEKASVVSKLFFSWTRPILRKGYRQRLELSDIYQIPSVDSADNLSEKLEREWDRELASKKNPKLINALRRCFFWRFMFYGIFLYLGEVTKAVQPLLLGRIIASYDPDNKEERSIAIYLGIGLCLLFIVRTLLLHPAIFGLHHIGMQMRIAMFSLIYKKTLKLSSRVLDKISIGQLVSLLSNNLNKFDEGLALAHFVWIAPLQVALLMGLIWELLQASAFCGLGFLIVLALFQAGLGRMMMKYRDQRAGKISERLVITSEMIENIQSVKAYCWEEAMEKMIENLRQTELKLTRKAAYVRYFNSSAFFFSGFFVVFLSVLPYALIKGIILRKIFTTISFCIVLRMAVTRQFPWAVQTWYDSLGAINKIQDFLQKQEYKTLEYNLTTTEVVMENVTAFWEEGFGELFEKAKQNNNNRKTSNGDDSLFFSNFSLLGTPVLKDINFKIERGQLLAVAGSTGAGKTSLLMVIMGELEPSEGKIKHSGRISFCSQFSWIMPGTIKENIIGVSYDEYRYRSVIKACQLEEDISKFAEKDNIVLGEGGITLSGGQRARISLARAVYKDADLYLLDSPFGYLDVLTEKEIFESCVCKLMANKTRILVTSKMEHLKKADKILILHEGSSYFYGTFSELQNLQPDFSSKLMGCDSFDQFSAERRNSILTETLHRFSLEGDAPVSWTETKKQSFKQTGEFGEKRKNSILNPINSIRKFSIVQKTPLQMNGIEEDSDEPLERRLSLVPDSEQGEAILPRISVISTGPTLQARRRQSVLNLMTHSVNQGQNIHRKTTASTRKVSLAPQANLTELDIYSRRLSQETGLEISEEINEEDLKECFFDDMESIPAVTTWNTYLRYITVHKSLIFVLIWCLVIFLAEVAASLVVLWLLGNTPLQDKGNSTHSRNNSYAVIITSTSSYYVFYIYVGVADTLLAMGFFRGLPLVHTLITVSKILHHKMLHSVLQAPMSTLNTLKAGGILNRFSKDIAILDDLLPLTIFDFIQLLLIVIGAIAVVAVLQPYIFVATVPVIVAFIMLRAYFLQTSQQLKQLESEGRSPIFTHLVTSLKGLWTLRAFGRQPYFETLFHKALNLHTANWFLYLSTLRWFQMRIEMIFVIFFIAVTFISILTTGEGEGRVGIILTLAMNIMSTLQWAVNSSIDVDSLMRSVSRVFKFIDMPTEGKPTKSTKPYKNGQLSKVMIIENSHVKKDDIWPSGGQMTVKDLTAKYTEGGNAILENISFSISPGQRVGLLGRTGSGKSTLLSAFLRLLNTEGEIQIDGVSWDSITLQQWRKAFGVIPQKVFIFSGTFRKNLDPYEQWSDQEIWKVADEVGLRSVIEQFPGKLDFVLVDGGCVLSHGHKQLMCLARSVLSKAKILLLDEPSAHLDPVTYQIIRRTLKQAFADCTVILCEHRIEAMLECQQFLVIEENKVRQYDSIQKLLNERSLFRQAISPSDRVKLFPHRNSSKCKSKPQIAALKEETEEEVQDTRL
Method: The effects of a test agent on CFTR-mediated transepithelial chloride transport was measured using TECC24 recording analysis. Test agents were solubilized in DMSO. Solubilized test agents were mixed with incubation medium containing DMEM/F12, Ultroser G (2%; Crescent Chemical, catalog #67042), Hyclone Fetal Clone II (2%; GE Healthcare, catalog #SH30066.02), bovine brain extract (0.25%; Lonza, catalog #CC-4098), insulin (2.5 μg/mL), IL-13 (10 ng/mL), hydrocortisone (20 nM), transferrin (2.5 μg/mL), triiodothyronine (500 nM), ethanolamine (250 nM), epinephrine (1.5 μM), phosphoethanolamine (250 nM), and retinoic acid (10 nM). Primary human bronchial epithelial cells from a ΔF508 homozygous CF donor (CF-HBE cells; from University of North Carolina Cystic Fibrosis Tissue Procurement Center), grown on Transwell HTS 24-well cell culture inserts (Costar, catalog #3378), were exposed to test agents or controls dissolved in incubation medium. The CF-HBE cells were cultured at 36.5° C. for 48 hours before TECC24 recordings were performed in the presence or absence of test agent, a positive control or vehicle (DMSO).
Following incubation, the transwell cell culture inserts containing the test agent or control-treated CF-HBE cells were loaded onto a TECC24 apparatus (TECC v7 or MTECC v2; EP Design) to record the transepithelial voltage (VT) and resistance (TEER) using 4 AgCl electrodes per well configured in current-clamp mode. The apical and basolateral bath solutions both contained (in mM) 140 NaCl, 5 KCl, 2 CaCl2, 1 MgCl2, 10 Hepes, and 10 glucose (adjusted to pH 7.4 with NaOH). To inhibit basal Na+ absorption, the ENaC inhibitor benzamil (10 μM) was added to the bath. Then, the adenylate cyclase activator, forskolin (10 μM), was added to the bath to activate CFTR. The forskolin-stimulated Cl— transport was halted by addition of CFTR inhibitor-172 (20 μM) to the bath at the end of the experiment to confirm specificity. VT and TEER recordings were digitally acquired at routine intervals using TECC or MTECC software (EP Design). VT and TEER were transformed into equivalent transpeithelial Cl— current (IEQ), and the Area Under the Curve (AUC) of the IEQ timecourse between forskolin and CFTR inhibitor-172 addition is generated using Excel (Microsoft). Efficacy is expressed as the ratio of the test agent AUC divided by vehicle AUC. EC50s based on AUC are generated using the non-linear regression log(agonist) vs. response function in Prism software (Graphpad) with HillSlope fixed=1.
If a test agent increased the AUC of the forskolin-stimulated IEQ relative to vehicle in CF-HBE cells, and this increase was inhibited by CFTR inhibitor-172, then the test agent was considered a CFTR corrector.

Row | Structure (SMILES) | TECC24 @ 10 μM over DMSO (AUC fold over DMSO) [2] | DSLS NBD1/3D Human Stability delta-T (° C.) @ 100 (μM) [1]
1 | O=C(O)CCc1cccc(Cc2cnc(-c3cc(Oc4c(F)c(F)c5[nH]ccc5c4F)ccc3F)[nH]2)c1 [Example 123, 3-(3-((2-(2-fluoro-5-((4,6,7-trifluoro-1H-indol-5-yl)oxy)phenyl)-1H-imidazol-5-yl)methyl)phenyl)propanoic acid] | B (“B” refers to AUC @10 uM between 4-12) | B (B: 5-10° C.)
2 | CP(C)(=O)c1c(Oc2ccc(F)c(-c3ncc(C4(c5cc(F)cc(CCC(=O)O)c5)CC(F)(F)C4)[nH]3)c2)c(F)cc2[nH]ccc12 [Example 80, 3-(3-(1-(2-(5-((4-(dimethylphosphoryl)-6-fluoro-1H-indol-5-yl)oxy)-2-fluorophenyl)-1H-imidazol-5-yl)-3,3-difluorocyclobutyl)-5-fluorophenyl)propanoic acid] | C (“C” refers to AUC @ 10 uM <= 4) | A (A: T ≥ 10° C.)
3 | CP(C)(=O)c1c(Oc2cccc(-c3nc(C(O)c4cccc(CCC(=O)O)c4)cs3)c2)c(F)cc2[nH]ccc12 (centres unmarked) [Example 97, 3-(3-((2-(3-((4-(Dimethylphosphoryl)-6-fluoro-1H-indol-5-yl)oxy)phenyl)thiazol-4-yl)(hydroxy)methyl)phenyl)propanoic acid] | C (“C” refers to AUC @ 10 uM <= 4) | B (B: 5-10° C.)
4 | O=C(O)CCc1cccc(Cc2c[nH]c(-c3cc(Oc4c(F)cc5c(ccn5P(=O)(O)O)c4F)ccc3F)n2)c1F [Example 270, 3-(3-((2-(5-((4,6-Difluoro-1-phosphono-1H-indol-5-yl)oxy)-2-fluorophenyl)-1H-imidazol-4-yl)methyl)-2-fluorophenyl)propanoic acid] | C (“C” refers to AUC @ 10 uM <= 4) | C (C: ≤5° C.)
5 | [2H]C([2H])([2H])C(C#N)(c1cccc(CCC(=O)O)c1)c1cnc(-c2cc(Oc3c(F)c(F)c4[nH]ccc4c3F)ccc2F)[nH]1 (single isomer, unassigned) [Example 64A, 3-(3-(1-Cyano-1-(2-(2-fluoro-5-((4,6,7-trifluoro-1H-indol-5-yl)oxy)phenyl)-1H-imidazol-5-yl)ethyl-2,2,2-d3)phenyl)propanoic acid] | B (“B” refers to AUC @10 uM between 4-12) | B (B: 5-10° C.)
6 | CCC(CC)(c1cccc(CCC(=O)O)c1)c1cnc(-c2cc(Oc3c(F)cc4[nH]ccc4c3C)ccc2F)[nH]1 [Example 159, 3-(3-(3-(2-(2-fluoro-5-((6-fluoro-4-methyl-1H-indol-5-yl)oxy)phenyl)-1H-imidazol-5-yl)pentan-3-yl)phenyl)propanoic acid] | B (“B” refers to AUC @10 uM between 4-12) | B (B: 5-10° C.)
7 | [2H]C([2H])([2H])C(C#N)(c1cccc(CCC(=O)O)c1)c1cnc(-c2cc(Oc3c(F)c(F)c4[nH]ccc4c3F)ccc2F)[nH]1 (single isomer, unassigned) [Example 64B, 3-(3-(1-Cyano-1-(2-(2-fluoro-5-((4,6,7-trifluoro-1H-indol-5-yl)oxy)phenyl)-1H-imidazol-5-yl)ethyl-2,2,2-d3)phenyl)propanoic acid] | A (“A” refers to AUC @10 uM >= 12) | B (B: 5-10° C.)
8 | CS(=O)(=O)CCc1c(Oc2ccc(F)c(-c3ncc(Cc4cccc(CCC(=O)O)c4F)[nH]3)c2)c(F)cc2[nH]ccc12 [Example 126, 3-(2-fluoro-3-((2-(2-fluoro-5-((6-fluoro-4-(2-(methylsulfonyl)ethyl)-1H-indol-5-yl)oxy)phenyl)-1H-imidazol-5-yl)methyl)phenyl)propanoic acid] | B (“B” refers to AUC @10 uM between 4-12) | A (A: T ≥ 10° C.)
9 | COCC(COC)(c1cccc(CCC(=O)O)c1)c1cnc(-c2cc(Oc3c(F)cc4[nH]ccc4c3F)ccc2F)[nH]1 [Example 171, 3-(3-(2-(2-(5-((4,6-Difluoro-1H-indol-5-yl)oxy)-2-fluorophenyl)-1H-imidazol-5-yl)-1,3-dimethoxypropan-2-yl)phenyl)propanoic acid] | C (“C” refers to AUC @ 10 uM <= 4) | A (A: T ≥ 10° C.)
10 | CC(c1cccc(CCC(=O)O)c1)(c1cnc(-c2cc(Oc3c(F)cc4[nH]ccc4c3S(C)(=O)=O)ccc2F)[nH]1)C(F)F (centres unmarked) [Example 276, 3-(3-(1,1-Difluoro-2-(2-(2-fluoro-5-((6-fluoro-4-(methylsulfonyl)-1H-indol-5-yl)oxy)phenyl)-1H-imidazol-5-yl)propan-2-yl)phenyl)propanoic acid] | C (“C” refers to AUC @ 10 uM <= 4) | A (A: T ≥ 10° C.)

Second part, led by results:

Row | TECC24 @ 10 μM over DMSO (AUC fold over DMSO) [2] | Structure (SMILES) | DSLS NBD1/3D Human Stability delta-T (° C.) @ 100 (μM) [1]
11 | A (“A” refers to AUC @10 uM >= 12) | CC(c1nnc(-c2cc(Oc3c(F)cc4[nH]ccc4c3F)ccc2F)[nH]1)c1cccc(CCC(=O)O)c1F (single isomer, unassigned) [Example 252A, 3-(3-(1-(5-(5-((4,6-difluoro-1H-indol-5-yl)oxy)-2-fluorophenyl)-4H-1,2,4-triazol-3-yl)ethyl)-2-fluorophenyl)propanoic acid] | B (B: 5-10° C.)
12 | C (“C” refers to AUC @ 10 uM <= 4) | CC(c1cnc(-c2cc(Oc3c(F)cc4[nH]ccc4c3CP(C)(C)=O)ccc2F)[nH]1)c1cccc(CCC(=O)O)c1F (single isomer, unassigned) [Example 133B, 3-(3-(1-(2-(5-((4-((dimethylphosphoryl)methyl)-6-fluoro-1H-indol-5-yl)oxy)-2-fluorophenyl)-1H-imidazol-5-yl)ethyl)-2-fluorophenyl)propanoic acid] | A (A: T ≥ 10° C.)
13 | A (“A” refers to AUC @10 uM >= 12) | CC(c1cnc(-c2cc(Oc3c(F)cc4[nH]ccc4c3F)ccc2F)[nH]1)c1cc(F)cc(CCC(=O)O)c1F (single isomer, unassigned) [Example 132B, 3-(3-(1-(2-(5-((4,6-difluoro-1H-indol-5-yl)oxy)-2-fluorophenyl)-1H-imidazol-5-yl)ethyl)-2,5-difluorophenyl)propanoic acid] | A (A: T ≥ 10° C.)
14 | A (“A” refers to AUC @10 uM >= 12) | CC(c1cnc(-c2cc(Oc3c(F)cc4[nH]ccc4c3CN3CCCS3(=O)=O)ccc2F)[nH]1)c1cccc(CCC(=O)O)c1F (single isomer, unassigned) [Example 134B, 3-(3-(1-(2-(5-((4-((1,1-dioxidoisothiazolidin-2-yl)methyl)-6-fluoro-1H-indol-5-yl)oxy)-2-fluorophenyl)-1H-imidazol-5-yl)ethyl)-2-fluorophenyl)propanoic acid] | A (A: T ≥ 10° C.)
15 | A (“A” refers to AUC @10 uM >= 12) | CC(Cc1cccc(C(C)c2cnc(-c3cc(Oc4c(F)cc5[nH]ccc5c4F)ccc3F)[nH]2)c1F)C(=O)O (single isomer, unassigned) [Example 137D, 3-(3-(1-(2-(5-((4,6-difluoro-1H-indol-5-yl)oxy)-2-fluorophenyl)-1H-imidazol-5-yl)ethyl)-2-fluorophenyl)-2-methylpropanoic acid] | A (A: T ≥ 10° C.)
16 | A (“A” refers to AUC @10 uM >= 12) | CC(c1c[nH]c(-c2cc(Oc3c(F)cc4[nH]ccc4c3S(C)(=N)=O)ccc2F)n1)c1cccc(CCC(=O)O)c1F (single isomer, unassigned) [Example 136C, 3-(2-fluoro-3-(1-(2-(2-fluoro-5-((6-fluoro-4-(S-methylsulfonimidoyl)-1H-indol-5-yl)oxy)phenyl)-1H-imidazol-4-yl)ethyl)phenyl)propanoic acid] | A (A: T ≥ 10° C.)
